Reference: patent US20030032635A1, “Heterocyclic esters and amides” (priority 1996, published 2003)

How the values were obtained:
FKBP12 (FKBP) = FKBP12 (FKBP) (Homo sapiens, UniProt P62942); assay: Ki test procedure: inhibition of peptidyl-prolyl isomerase (rotamase) activity, chymotrypsin-coupled assay; type: biochemical; settings: apparent Ki, substrate N-succinyl-Ala-Ala-Pro-Phe-p-nitroanilide
Text: As discussed above, the compounds of the present invention have an affinity, for the FK506 binding protein, particularly FKBP12. The inhibition of the prolyl peptidyl cis-trans isomerase activity of FKBP may be measured as an indicator of this affinity.
Inhibition of the peptidyl-prolyl isomerase (rotamase) activity of the inventive compounds can be evaluated by known methods described in the literature (Harding, et al., Nature, 1989, 341:758-760; Holt et al. J. Am. Chem. Soc., 115:9923-9938). The cis-trans isomerization of an alanine-proline bond in a model substrate, N-succinyl-Ala-Ala-Pro-Phe-p-nitroanilide, is monitored spectrophotometrically in a chymotrypsin-coupled assay, which releases paranitroanilide from the trans form of the substrate. The inhibition of this reaction caused by the addition of different concentrations of inhibitor is determined, and the data is analyzed as a change in first-order rate constant as a function of inhibitor concentration to yield the apparent Ki values. […]
The absorbance at 390 nm versus time is monitored for 90 seconds using a spectrophotometer and the rate constants are determined from the absorbance versus time data files. […]

[1] = test system: chick dorsal root ganglia (sensory neurons); assay: Chick dorsal root ganglion cultures and neurite outgrowth; type: cell-based
Experimental: Dorsal root ganglia were dissected from chick embryos of ten day gestation. Whole ganglion explants were cultured on thin layer Matrigel-coated 12 well plates with Liebovitz L15 plus high glucose media supplemented with 2 mM glutamine and 10% fetal calf serum, and also containing 10 μM cytosine β-D arabinofuranoside (Ara C) at 37° C. in an environment containing 5% CO2. Twenty four hours later, the DRGs were treated with various immunophilin ligands. Forty-eight hours after drug treatment, the ganglia were visualized under phase contrast or Hoffman Modulation contrast with a Zeiss Axiovert inverted microscope. Photomicrographs of the explants were made, and neurite outgrowth was quantitated. Neurites longer than the DRG diameter were counted as positive, with total number of neurites quanitated per each experimental condition. Three to four DRGs are cultured per well, and each treatment was performed in duplicate.
The data for these experiments for representative compounds are presented in the “ED50” column of Table III.

FKBP12 (FKBP), sequence (P62942 whole entry, species assumed): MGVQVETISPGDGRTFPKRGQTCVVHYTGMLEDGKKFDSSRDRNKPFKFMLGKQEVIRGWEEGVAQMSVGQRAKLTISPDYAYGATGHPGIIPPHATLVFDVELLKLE

Ki (FKBP12 (FKBP))	SMILES	neurite outgrowth in sensory neurons (photomicrograph) ([1]; 1 pM)	neurite outgrowth in sensory neurons (photomicrograph) ([1]; 10 pM)	neurite outgrowth in sensory neurons (photomicrograph) ([1]; 100 pM)	neurite outgrowth in sensory neurons (photomicrograph) ([1]; 10 nM)
0.215 µM	CCC(C)(C)C(=O)C(=O)N1CSCC1C(=O)OCCCc1ccccc1 [Compound 1, 3-phenyl-1-propyl(2S)-1-(3,3-dimethyl-1,2-dioxopentyl)-2-(4-thiazolidine)carboxylate]	promoting neurite outgrowth	promoting neurite outgrowth	promoting neurite outgrowth	
0.638 µM	CCC(C)(C)C(=O)C(=O)N1CSCC1C(=O)OCCCc1cccnc1 [Compound 2, 3-(3-pyridyl)-1-propyl(2S)-1-(3,3-dimethyl-1,2-dioxopentyl) -2-(4-thiazolidine) carboxylate]		promoting neurite outgrowth	promoting neurite outgrowth	promoting neurite outgrowth
